Data set [1] can be described thus: in vivo. Set-up: species or system SD rats. As to conditions: both sexes, SD, rat, po, 50 mg/kg. As to the method: SD rats were used as test animals. After intragastric (i.g.) administration of example compounds to SD rats, the plasma concentrations at different time points were measured by the LC/MS/MS method. The pharmacokinetic behavior of the compound of the present disclosure in SD rats was studied, and its pharmacokinetic profiles were evaluated.
Four SD rats, of which half were male and half female, were provided by Vital River Laboratory Animal Technology Co., Ltd. The animals were fasted overnight and then intragastrically dosed.
A certain amount of example compound was weighed out and dissolved in 5% DMSO+20% PEG400+70% (10% TPGS)+5% (1% HPMC K100LV) to prepare a 5 mg/mL colorless clear solution.
The dose administered was 50 mg/kg, and the volume was 10.0 mL/kg.
0.2-mL blood samples were collected from the orbit before administration and 0.25 h, 0.5 h, 1.0 h, 2.0 h, 4.0 h, 6.0 h, 8.0 h, 11.0 h, and 24.0 h after administration. The blood samples were placed into EDTA-K2 anticoagulation test tubes and centrifuged at 10,000 rpm for 1 min (4° C.), and plasma was separated within 1 h and stored in dry ice before analysis. The procedure starting from the blood collection to the centrifugation was performed under ice-bath conditions. Access to food was given 2 hours after administration.
After administration of different concentrations of the test compounds, the plasma concentration of the test compound in SD rats was determined: plasma samples (50 μL) were collected from the SD rats at various time points after administration, and 25 μL of camptothecin (1 μg/mL) and 450 μL of acetonitrile were added to each of the samples. The mixtures were vortexed and centrifuged at 3700 rpm for 10 min. 0.1 μL of the supernatant was taken for LC/MS/MS analysis.

In data set [2] the test system is HER2 wild-type Ba/F3 cells. The experiment in a line: Ba/F3 cell proliferation assay, HER2 wild-type. The class given is cell-based. As to conditions: Mus musculus, BaF3, 72 h, Celltiter-Glo cell viability; for GI50: read-out: HER2 WT/BaF3 GI50; for Emax: read-out: HER2 WT/BaF3 Imax %. As to the method: (§1) EGFR wild-type Ba/F3 cells (Cobioer, Cat. No. CBP73110) in the logarithmic growth phase were seeded into a 96-well plate at 2.5×10^3 cells/[…] in a growth medium, and HER2 wild-type Ba/F3 cells (Cobioer, Cat. No. CBP73110) or HER2 A775_G776insYVMA mutant Ba/F3 (Cobioer, Cat. No. CBP73184) in the logarithmic growth phase were seeded into a 96-well plate at 5×10^3 cells/100 μL in a growth medium.
(§2) The plates were placed in a cell incubator at 37° C. overnight. The compound diluted in 3-fold gradient with a medium was added to the plates at 100 μL/well the next day. All treatments were performed in triplicate. The plates were cultured in the cell incubator at 37° C. for another 72 h. Celltiter-Glo Luminescent cell viability assay was performed.
(§3) The cell proliferation rate corresponding to each well was calculated according to the following formula: proliferation %=(test compound well G3-GO average value)/(DMSO control well G3 average value -GO average value)×100. According to the corresponding proliferation rate and concentration of each gradient concentration well, a gradient curve of cell proliferation was fitted using Prism Graphpad software, and GI50 (GI50 is defined as the concentration of a compound corresponding to the cell proliferation inhibition rate of 50%) of the compound was calculated.
A general note: Cellular ATP, detected with luciferase, serves as a proxy for viable cell number.

Data set [3] concerns EGFR wild-type Ba/F3 cells. Kind of data set: Ba/F3 cell proliferation assay, EGFR wild-type. The data set is classed as cell-based. As to conditions: 72 h, Celltiter-Glo cell viability; for GI50: Mus musculus, BaF3, read-out: EGFR WT/BaF3 GI50. Here is the method:
as §1, §2, §3

The nature of data set [4]: in vivo. The arrangement: species or system C57 mice. As to conditions: female, C57, mouse, po, 50 mg/kg. As to the method:
C57 mice were used as test animals. After intragastric (i.g.) administration of example compounds to C57 mice, the plasma concentrations at different time points were measured by the LC/MS/MS method. The pharmacokinetic behavior of the compounds of the present disclosure in C57 mice was studied and their pharmacokinetic profiles were evaluated.
Twenty-seven C57 mice, female, were evenly divided into 3 groups, provided by Beijing HFK Bioscience Co., Ltd., and intragastrically administered.
A certain amount of example compound was weighed out and dissolved in 5% DMSO+20% PEG400+70% (10% TPGS)+5% (1% HPMC K100LV) to prepare a 2.5 mg/mL colorless clear solution.
The dose administered was 50 mg/kg, and the volume was 20.0 mL/kg.
0.1-mL blood samples were collected from the orbit before administration and 0.25 h, 0.5 h, 1.0 h, 2.0 h, 4.0 h, 6.0 h, 8.0 h, 11.0 h, and 24.0 h after administration. The blood samples were placed into EDTA-K2 anticoagulation test tubes and centrifuged at 10,000 rpm for 2 min (4° C.), and plasma was separated within 1 h and stored at −20° C. before analysis. The procedure starting from the blood collection to the centrifugation was performed under ice-bath conditions. Access to food was given 2 hours after administration.
After administration of different concentrations of the test compounds, the plasma concentrations of the test compounds in C57 mice were determined: plasma samples (50 μL) were collected from the C57 mice at various time points after administration, and 25 μL of labetalol (1 μg/mL) and 450 μL of acetonitrile were added to each of the samples.
The mixtures were vortexed and centrifuged at 3700 rpm for 10 min. 0.1 μL of the supernatant was taken for LC/MS/MS analysis.

Data set [5] relates to HER2 A775_G776insYVMA mutant Ba/F3. The experiment in a line: Ba/F3 cell proliferation assay, HER2 A775_G776insYVMA mutant. The class given is cell-based. The conditions noted are these: Mus musculus, BaF3, 72 h, Celltiter-Glo cell viability; for GI50: read-out: HER2 A775_G776 ins YVMA/BaF3 GI50; for Emax: read-out: HER2 A775_G776 ins YVMA/BaF3 Imax %. Here is the method:
as §1, §2, §3

As a reminder, the AUC(0-t) is the area under the concentration-time curve up to a stated or last time point. Low readings indicate low exposure, high ones high exposure. One may read the CL/F as clearance divided by bioavailability, as obtained after extravascular dosing. A word on the Cmax: it is the peak of the concentration-time curve. Broadly, the Vd/F is the apparent distribution volume after extravascular dosing. In general, half-life refers to the time needed for the level to fall by half in the phase considered.

In the data set “in vivo [1]”, `C=CC(=O)N1[C@@H]2CC[C@H]1C[C@@H](Oc1ccc3ncnc(Nc4ccc(Oc5ccn6ncnc6c5)c(C)c4F)c3c1)C2` [Example 10, 1-(endo-3-((4-((4-([1,2,4]Triazolo[1,5-a]pyridin-7-yloxy)-2-fluoro-3-methylphenyl)amino)quinazolin-6-yl)oxy)-8-azabicyclo[3.2.1]octan-8-yl)prop-2-en-1-one] registered an AUC(0-t) of 70800 ng·h/mL, an apparent clearance CL/F of 14.7 mL/min/kg, a maximum concentration (Cmax) of 19300 ng/mL and a Vd/F of 2.95 L/kg. Moreover, the half-life in “in vivo [1]” was 2.3 h. For the same molecule, in data set [2], the GI50 was 9.3 nM and the Emax is 100%. Further, in data set [3], the “EGFR WT/BaF3 Imax %” value was found to be 100% and the GI50 amounted to 2840 nM. In “in vivo [4]”, this molecule returned an area under the curve AUC(0-t) of 31200 ng·h/mL, an apparent clearance (CL/F) of 26.5 mL/min/kg, a Cmax of 14000 ng/mL and a Vd/F of 3.75 L/kg. The same molecule had a half-life in “in vivo [4]” of 1.6 h. Moreover, in data set [5], the GI50 came to 10.3 nM and the Emax is 100%.

Consider `C=CC(=O)N1[C@@H]2CC[C@H]1C[C@@H](Oc1ccc3ncnc(Nc4ccc(Oc5ccc6c(c5)ncn6C)c(C)c4F)c3c1)C2` [Example 18, 1-(endo-3-((4-((2-Fluoro-3-methyl-4-((1-methyl-1H-benzo[d]imidazol-5-yl)oxy)phenyl)amino)quinazolin-6-yl)oxy)-8-azabicyclo[3.2.1]octan-8-yl)prop-2-en-1-one], for which, in data set [2], the GI50 turned out to be 17.7 nM and the Emax turned out to be 100%. For the same molecule, in data set [3], the “EGFR WT/BaF3 Imax %” value is on record as 100% and the GI50 is 2130 nM. In “in vivo [4]”, the exposure AUC(0-t) amounted to 44900 ng·h/mL, the CL/F was found to be 18.5 mL/min/kg, the highest level (Cmax) was 12700 ng/mL and the Vd/F came out at 3.93 L/kg. In addition, in “in vivo [4]”, the half-life was 2.5 h. In data set [5], the GI50 came to 23.6 nM and the Emax came to 100%.

With `C=CC(=O)N1[C@@H]2CC[C@H]1C[C@H](Oc1cc3c(Nc4ccc(Oc5ccn6ncnc6c5)c(C)c4F)ncnc3cn1)C2` [Example 21, 1-(exo-3-((4-((4-([1,2,4]Triazolo[1,5-a]pyridin-7-yloxy)-2-fluoro-3-methylphenyl)amino)pyrido[3,4-d]pyrimidin-6-yl)oxy)-8-azabicyclo[3.2.1]octan-8-yl)prop-2-en-1-one], the results for the GI50 in data set [2], in data set [3] and in data set [5] were 5.3 nM, 913 nM and 10.4 nM, respectively. Moreover, the Emax in data set [2] and in data set [5] was 100% throughout. Moreover, the “EGFR WT/BaF3 Imax %” value in data set [3] stood at 100%.

Turning to `C=CC(=O)N1[C@@H]2CC[C@H]1C[C@H](Oc1cc3c(Nc4ccc(Oc5ccn6ncnc6c5)c(C)c4)ncnc3cn1)C2` [Example 26, 1-(exo-3-((4-((4-([1,2,4]Triazolo[1,5-a]pyridin-7-yloxy)-3-methylphenyl)amino)pyrido[3,4-d]pyrimidin-6-yl)oxy)-8-azabicyclo[3.2.1]octan-8-yl)prop-2-en-1-one], in data set [2], the GI50 is 9.2 nM and the Emax was 100%. Besides, in data set [3], the “EGFR WT/BaF3 Imax %” value amounted to 100% and the GI50 came out at 1630 nM. For the same molecule, in the data set “in vivo [4]”, the AUC(0-t) is 32100 ng·h/mL, the CL/F was 26 mL/min/kg, the peak concentration (Cmax) came to 11300 ng/mL and the Vd/F is 2.88 L/kg. Further, the half-life in “in vivo [4]” was 1.3 h. Further, in data set [5], the GI50 was determined as 23.4 nM and the Emax was 100%.

The values above are taken from US20250206760A1, “NITROGEN-CONTAINING HETEROCYCLIC COMPOUND, PREPARATION METHOD THEREFOR, AND PHARMACEUTICAL APPLICATION THEREOF” (Jiangsu Hengrui Pharmaceuticals Co., Ltd., priority 2022, published 2025).
